This note sets out measurements from article PMC9558053, “Development of a novel high-throughput screen for the identification of new inhibitors of protein S-acylation” (The Journal of Biological Chemistry, 2022).

The target in one assay is T1, human zDHHC2 (Homo sapiens, UniProt Q9UIJ5).
T1 construct: expressed in transfected cells; host or cells: HEK293T
T1 sequence (Q9UIJ5 1-367): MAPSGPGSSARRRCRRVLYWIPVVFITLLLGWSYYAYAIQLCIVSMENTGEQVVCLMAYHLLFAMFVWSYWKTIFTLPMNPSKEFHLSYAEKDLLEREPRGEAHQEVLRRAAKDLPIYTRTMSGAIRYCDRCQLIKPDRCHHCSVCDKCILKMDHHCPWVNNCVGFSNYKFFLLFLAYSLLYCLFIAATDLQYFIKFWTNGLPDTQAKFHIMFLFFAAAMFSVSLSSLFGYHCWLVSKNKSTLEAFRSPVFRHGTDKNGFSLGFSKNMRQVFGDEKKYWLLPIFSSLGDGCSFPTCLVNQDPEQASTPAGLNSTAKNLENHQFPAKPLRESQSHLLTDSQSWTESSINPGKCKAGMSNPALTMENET
As to the kind of experiment: PSD95-mCHERRY S-acylation in HEK293T cells co-expressing zDHHC2. The assay is classed as cell-based. Conditions: 25 μM. An excerpt:
(§1) PSD95 (postsynaptic density protein 95) is a major S-acylated protein that has a critical role in the maturation of excitatory neurons and in synaptic plasticity ([46], [47]). PSD95 can be S-acylated by zDHHC2, zDHHC3, zDHHC7, and zDHHC15 ([6]). […] We therefore tested the effects of TTZ-1 and TTZ-2 on the S-acylation of PSD95 mediated by zDHHC2, zDHHC3, zDHHC7, and zDHHC15. […] In contrast, zDHHC3 and zDHHC7 activities toward PSD95 were unaffected by TTZ-1 and TTZ-2, mirroring the data obtained with GFP-SNAP25 as a substrate.
(§2) Figure 9 Activity of TTZ-1 and TTZ-2 against PSD95 S-acylation mediated by human zDHHC2, zDHHC3, zDHHC7, and zDHHC15 expressed in mammalian cells. HEK293T cells were transfected with a plasmid encoding PSD95-mCHERRY together with either a control plasmid pEF-BOS-HA (pEF) or a plasmid encoding either HA-tagged human zDHHC2 (zD2), zDHHC3 (zD3), zDHHC7 (zD7), or zDHHC15 (zD15) for 24 h. Cells were then preincubated for 4 h with TTZ-1 or TTZ-2 (25 μM final) or DMSO control before metabolic labeling with 100 μM C16:0-azide for 4 h. Cells were lysed, and proteins having incorporated C16:0-azide were labeled by click chemistry with an alkyne-IR800 dye. […] The data were quantified, and the graphs below each set of membranes show mean ± SEM of normalized S-acylation of PSD95-mCHERRY (click signal/RFP signal). […]

Another assay deals with T2, human zDHHC15 (Homo sapiens, UniProt Q96MV8).
T2 construct: expressed in transfected cells; host or cells: HEK293T
T2 sequence (Q96MV8 1-337): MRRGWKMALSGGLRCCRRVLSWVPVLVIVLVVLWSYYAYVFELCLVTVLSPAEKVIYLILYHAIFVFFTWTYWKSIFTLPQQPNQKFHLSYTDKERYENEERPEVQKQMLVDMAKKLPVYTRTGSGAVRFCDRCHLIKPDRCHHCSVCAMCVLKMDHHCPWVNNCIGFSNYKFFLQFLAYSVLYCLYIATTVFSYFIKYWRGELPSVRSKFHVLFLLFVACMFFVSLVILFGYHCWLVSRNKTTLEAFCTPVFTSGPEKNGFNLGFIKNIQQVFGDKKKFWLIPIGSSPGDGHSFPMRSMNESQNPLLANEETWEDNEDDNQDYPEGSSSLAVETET
As to the kind of experiment: PSD95-mCHERRY S-acylation in HEK293T cells co-expressing zDHHC15. Conditions: 25 μM. Type of assay: cell-based.
Source text: as §1, §2

A further assay concerns the target T3, purified human zDHHC2 (Homo sapiens, UniProt Q9UIJ5).
T3 construct: StrepII (C); made in house; host or cells: Sf9 TriEX insect cells, baculovirus
T3 sequence (Q9UIJ5 1-367): T1 sequence (Q9UIJ5 1-367)
The assay is described as follows: In vitro SNAP25 S-acylation by purified zDHHC2, copper-free click chemistry, ELISA. Type of assay: biochemical. Particulars: for inhibition at 3 µM / inhibition at 10 µM: in vitro ELISA, UoS, read-out: zDHHC2-mediated SNAP25 S-acylation inhibition (%); for inhibition at 3 µM: compound 3 μM; for inhibition at 10 µM: compound 10 μM; for IC50 / SNAP25 S-acylation by purified zDHHC2, SDS-PAGE and Western blotting: in vitro; for IC50: ELISA, concentrations 0.3 to 30 μM, read-out: zDHHC2-mediated substrate (SNAP25) S-acylation IC50 (95 CI); for SNAP25 S-acylation by purified zDHHC2, SDS-PAGE and Western blotting: selected samples at 3 or 10 μM. Background: An ELISA detects its analyte on a solid surface through an enzyme-linked reagent.

Consider `O=C(Nc1cccc2c1OC(c1nnn[nH]1)CN2)c1ccc(OCCCCc2ccccc2)cc1` (stereo not drawn) [TTZ-2, N-(2-(1H-Tetrazol-5-yl)-3,4-dihydro-2H-benzo[b][1,4]oxazin-8-yl)-4-(4-phenylbutoxy)benzamide], for which the “PSD95-mCHERRY S-acylation by zDHHC2” value on human zDHHC2 was “significantly inhibited”. Further, the “PSD95-mCHERRY S-acylation by zDHHC15” value at human zDHHC15 is “significantly inhibited”. In addition, on purified human zDHHC2, the inhibition at 3 µM worked out at 64%; the inhibition at 10 µM was found to be 81%; the half-inhibitory concentration (IC50) is 1.3 µM; the “SNAP25 S-acylation by purified zDHHC2, SDS-PAGE and Western blotting” value is “confirmed the inhibitory activity”.

Regarding `CCCCCCCOc1ccc(C(=O)Nc2cccc3c2OC(c2nnn[nH]2)CN3)cc1` (stereo not drawn) [TTZ-1, N-(2-(1H-Tetrazol-5-yl)-3,4-dihydro-2H-benzo[b][1,4]oxazin-8-yl)-4-(heptyloxy)benzamide], the “PSD95-mCHERRY S-acylation by zDHHC2” value at human zDHHC2 is given as “significantly inhibited”. The “PSD95-mCHERRY S-acylation by zDHHC15” value at human zDHHC15 was “significantly inhibited”. For the same compound, at purified human zDHHC2, the inhibition at 3 µM worked out at 30%; the inhibition at 10 µM is 77%; the concentration for half-maximal inhibition (IC50) came out at 4.7 µM; the “SNAP25 S-acylation by purified zDHHC2, SDS-PAGE and Western blotting” value is “confirmed the inhibitory activity”.

As usually defined, the inhibition is the percentage by which the read-out fell short of the control. For orientation: IC50 means the midpoint of a concentration-inhibition curve.
